This data set is described as follows: in vitro. The conditions noted are these: human, hela cells, % viability.
What is called viability is a read-out of living cells in per cent, often relative to untreated cells. In the case of `O=C(CN1CCC(C(=O)c2ccc(F)cc2)CC1)Nc1ncccn1` [CBK149131], the viability at 28.5 h, 10 µM was determined as 95.7%.
As for `O=C(c1ccc(F)cc1)C1CCN(Cc2cc(=O)[nH]c(=O)[nH]2)CC1` [CBK149132], the figure is 91.8%.
For `O=C(c1ccc(F)cc1)C1CCN(CCC(c2ccccc2)c2ccccc2)CC1` [CBK149138] the value was 92.3%; for `Cc1nc(CN2CCC(C(=O)c3ccc(F)cc3)CC2)cs1` [CBK149147], 103%; for `Cc1ccc(NC(=O)c2nc(-c3ccc(C(=O)N4CCOCC4)cc3)cnc2N)c(O)c1` [CBK149152], 44.3%.
As for `Nc1ncc(-c2ccc(C(=O)N3CCOCC3)cc2)nc1C(=O)NC1CCCCC1` [CBK149160], the figure is 89.3%; as for `COc1cccc(NC(=O)N2CCC(n3c(=O)n(C(=O)Nc4cccc(OC)c4)c4ccccc43)CC2)c1` [CBK149177], 94.8%; as for `CCOc1ccc(OC(=O)c2ccc3c(c2)OCO3)cc1` [CBK149205], 92.6%.
In the case of `CCOc1ccc(OC(=O)c2ccc(OC(F)(F)F)cc2)cc1` [CBK149207], the viability at 28.5 h, 10 µM was found to be 95.8%.
For `COC(=O)c1ccc(-c2ccc(F)cc2OC)nc1` [CBK149230] the value was 88.3%.
For `COC(=O)c1ccc(-c2ccc(Cl)c(Cl)c2)nc1` [CBK149231] the value was 101%.
As for `CCOC(=O)c1cnn(C)c1-c1ccc(F)cc1OC` [CBK149233], the figure is 92.8%; as for `CCOC(=O)c1cccnc1-c1cncnc1` [CBK149236], 118%; as for `CCOC(=O)c1cccnc1-c1cccc(C(N)=O)c1` [CBK149239], 96%.
As for `CCOC(=O)c1cccnc1-c1ccc(Cl)c(Cl)c1` [CBK149241], the viability at 28.5 h, 10 µM worked out at 92.1%.
For `CCOC(=O)c1cccnc1-c1ccc(S(C)(=O)=O)cc1` [CBK149242] the value was 105%.
As for `CCOC(=O)c1cccc(-c2cc3ccccc3o2)n1` [CBK149243], the figure is 114%.
As to `CCOC(=O)c1cccc(-c2ccc(F)cc2F)n1` [CBK149245], the viability at 28.5 h, 10 µM came out at 101%.
As for `CCOC(=O)c1cccc(-c2ccc(OC(F)(F)F)cc2)n1` [CBK149251], the figure is 96.6%; as for `c1ccc(-c2nc(C3CC3)n3ccccc23)cc1` [CBK149257], 94.1%; as for `c1ccc(-c2nc(C3CCCC3)n3ccccc23)cc1` [CBK149260], 93.3%.
Turning to `COc1cccc2sc(NC(=O)CCCN(C)C)nc12` [CBK149261], the viability at 28.5 h, 10 µM worked out at 93%.
With `COc1cccc2sc(NC(=O)c3ccc4occc4c3)nc12` [CBK149278], the viability at 28.5 h, 10 µM was 96.8%.
For `COc1cccc2sc(NC(=O)CN3CCOCC3)nc12` [CBK149281] the value was 98.8%; for `COc1cccc2sc(NC(=O)c3c(F)cccc3F)nc12` [CBK149283], 95.5%; for `COc1cccc2sc(NC(=O)Cc3ccccc3)nc12` [CBK149284], 103%.
For `CN(C)CCCC(=O)NCc1ccc(-c2csnn2)cc1` [CBK149288] the value was 91%; for `O=C(NCc1ccc(-c2csnn2)cc1)c1cccc(C(F)(F)F)c1` [CBK149293], 87.2%; for `CSCCC(=O)NCc1ccc(-c2csnn2)cc1` [CBK149304], 83.2%.
For the molecule `COc1cc(C(=O)NCc2ccc(-c3csnn3)cc2)cc(OC)c1OC` [CBK149308], the viability at 28.5 h, 10 µM amounted to 87%.
For `O=C(COc1cccnc1)NCc1ccc(-c2csnn2)cc1` [CBK149312] the value was 93.1%.
As for `COc1ccc2[nH]cc(CC(=O)NCc3ccc(-c4csnn4)cc3)c2c1` [CBK149313], the figure is 82.7%.
As for `Cc1cc(C(=O)NCc2ccc(-c3csnn3)cc2)n[nH]1` [CBK149314], the figure is 88.8%; as for `CCN(CC)CCNC(=O)c1c(C)[nH]c(/C=C2\C(=O)Nc3ccc(F)cc32)c1C` [CBK149343], 50.7%.
For `CS(=O)(=O)c1ccc(Cn2cc(CN3CCC(Sc4ccccn4)CC3)nn2)cc1` [CBK149475], the viability at 28.5 h, 10 µM stood at 98.4%.
In the case of `CC(=O)Nc1ccc(-n2cc(CN3CCC(Sc4ccccn4)CC3)nn2)cc1` [CBK149476], the viability at 28.5 h, 10 µM worked out at 99.5%.
As for `CC(=O)Nc1ccc(-n2cc(COC3CCN(C(=O)OC(C)(C)C)CC3)nn2)cc1` [CBK149481], the figure is 121%; as for `CC(=O)Nc1ccc(-c2cccc(COC3CCN(C(=O)c4ccc(OC(C)C)cc4)CC3)c2)cc1` [CBK149485], 100%.
As for `CC(=O)Nc1ccc(-c2cccc(COC3CCN(C(=O)Cc4ccc(Cl)c(Cl)c4)CC3)c2)cc1` [CBK149487], the figure is 109%.
With `CC(=O)Nc1ccc(-c2cccc(COC3CCN(C(=O)Cc4c[nH]cn4)CC3)c2)cc1` [CBK149497], the viability at 28.5 h, 10 µM is 103%.
As for `CS(=O)(=O)c1ccc(-c2cccc(COC3CCN(C(=O)Cc4ccc(F)cc4F)CC3)c2)cc1` [CBK149506], the figure is 87.8%; as for `CS(=O)(=O)c1ccc(-c2cccc(COC3CCN(C(=O)Cc4cccc5ccccc45)CC3)c2)cc1` [CBK149510], 90.6%.
As for `CS(=O)(=O)c1ccc(-c2cccc(COC3CCN(C(=O)Cc4ccc(C#N)cc4)CC3)c2)cc1` [CBK149513], the figure is 96.3%.
As for `Cc1cc(CNC(=O)C2(c3ccccc3)CCCC2)no1` [CBK149518], the figure is 103%; as for `Cc1cc(Cl)ccc1CNC(=O)C1(c2ccccc2)CCCC1` [CBK149519], 88.6%; as for `O=C(NCc1ccc2occc2c1)C1(c2ccccc2)CCCC1` [CBK149525], 116%.
`O=C(NCc1c(F)cccc1F)C1(c2ccccc2)CCCC1` [CBK149527]: the viability at 28.5 h, 10 µM came out at 91.7%.
For `CN(C)CC(C)(C)CNC(=O)C1(c2ccccc2)CCCC1` [CBK149532] the value was 107%; for `O=C(NCc1cccs1)C1(c2ccccc2)CCCC1` [CBK149533], 103%; for `O=C(NC(c1ccccc1)c1ccccc1)C1(c2ccccc2)CCCC1` [CBK149536], 96.8%.
As for `O=C(NCc1ccco1)C1(c2ccccc2)CCCC1` [CBK149539], the figure is 96%; as for `O=C(NCc1cccs1)c1ccccc1Nc1cccc(C(F)(F)F)c1` [CBK149557], 104%; as for `CS(=O)(=O)c1ccc(CNC(=O)c2ccccc2Nc2cccc(C(F)(F)F)c2)cc1` [CBK149580], 92%.
For `CC(C)c1ccc(/C=C/C(=O)NCc2cccs2)cc1` [CBK149587] the value was 100%.
As to `COc1ccc(OCCNC(=O)c2ccccc2-n2cccc2)cc1` [CBK149592], the viability at 28.5 h, 10 µM came to 95.6%.
For `CN(C)CC(C)(C)CNC(=O)c1ccccc1-n1cccc1` [CBK149600] the value was 92.3%.
For `O=C(NCc1cccnc1)c1ccccc1-n1cccc1` [CBK149602] the value was 92.3%; for `O=C(NCC1CCCCC1)c1ccccc1-n1cccc1` [CBK149603], 91.7%.
For `O=C(c1ccccc1-n1cccc1)N1CCCC1` [CBK149608] the value was 81.6%; for `CCOC(=O)CCNC(=O)c1ccccc1-n1cccc1` [CBK149611], 95.3%.
As to `Cc1cc(CNC(=O)/C=C/c2ccc(C(C)C)cc2)no1` [CBK149614], the viability at 28.5 h, 10 µM was determined as 103%.
As for `CC(C)c1ccc(/C=C/C(=O)NCc2ccc3occc3c2)cc1` [CBK149620], the figure is 93.3%; as for `Cc1cnc(CNC(=O)/C=C/c2ccc(C(C)C)cc2)cn1` [CBK149625], 99.4%; as for `CC(C)c1ccc(/C=C/C(=O)NCCc2c[nH]cn2)cc1` [CBK149629], 101%.
With `CC(C)c1ccc(/C=C/C(=O)NCc2ccccc2)cc1` [CBK149635], the viability at 28.5 h, 10 µM was determined as 112%.
For `CCN(CC)C(=O)/C=C/c1ccc(C(C)C)cc1` [CBK149636], the viability at 28.5 h, 10 µM is 93.1%.
As for `COc1ccc2[nH]cc(CCNC(=O)/C=C/c3ccc(C(C)C)cc3)c2c1` [CBK149639], the figure is 91.7%; as for `CC(C)c1ccc(/C=C/C(=O)NC2CC2)cc1` [CBK149640], 105%.
As for `CCOC(=O)CCNC(=O)/C=C/c1ccc(C(C)C)cc1` [CBK149643], the figure is 102%; as for `O=c1[nH]c2ccccc2n1C1CCN(S(=O)(=O)c2cccs2)CC1` [CBK149689], 98.4%; as for `O=c1[nH]c2ccccc2n1C1CCN(S(=O)(=O)c2ccc(OC(F)(F)F)cc2)CC1` [CBK149690], 93.8%.
Turning to `Cc1ccc(S(=O)(=O)N2CCC(n3c(=O)[nH]c4ccccc43)CC2)cc1Cl` [CBK149691], the viability at 28.5 h, 10 µM was 90.8%.
As for `O=c1[nH]c2ccccc2n1C1CCN(S(=O)(=O)c2cc(Cl)cc(Cl)c2O)CC1` [CBK149694], the figure is 81.4%; as for `O=S(=O)(Nc1nccnc1Cl)c1ccccc1Cl` [CBK149698], 84.3%; as for `O=C(C1CCCCC1)N1CCC(n2c(=O)[nH]c3ccccc32)CC1` [CBK149703], 92.8%.
As for `O=C(c1ccccc1C(F)(F)F)N1CCC(n2c(=O)[nH]c3ccccc32)CC1` [CBK149706], the figure is 97%; as for `O=C(C1CCC1)N1CCC(n2c(=O)[nH]c3ccccc32)CC1` [CBK149709], 108%; as for `CN(C)Cc1ccc2nc(C(F)(F)F)cc(SCCC(=O)O)c2c1` [CBK149715T], 91.4%.
For `CC(=O)Nc1ccc(OCCO)cc1` [CBK149724] the value was 86.6%.
Consider `CN(C)c1ccc2cccc(O)c2n1` [CBK149729], for which the viability at 28.5 h, 10 µM worked out at 93.9%.
As for `COc1ccc(CC(=O)N2CCC(C3OCc4cc(-c5ccc(C(=O)N(C)C)cc5)ccc4O3)CC2)cc1` (stereo not drawn) [CBK149759], the figure is 88.2%.

The values are drawn from article PMC12040169 (PLOS Biology, 2025).
